PubChem BioAssay AID248 (DTP/NCI, 2004)
Where “and” joins values, the source holds several entries; their conditions need not be identical. Identical values can stand only once. Inconclusive results and toxic doses are left out.

Tested on: L1210 leukemia ip in BDF1 mice, survival T/C
Assay: NCI In Vivo Anticancer Drug Screen. Data for tumor model L1210 Leukemia (intraperitoneal) in B6D2F1 (BDF1) mice
Conditions: higher = longer survival
Summary of the method: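 Read-out is survival time, reported as the treated-group measurement over the vehicle-control measurement.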

[1] = endpoint: mean survival time, dose: 100.0 mg/kg/injection, schedule: Q04DX003 (ip), vehicle: saline with Tween-80
[2] = endpoint: mean survival time, dose: 200.0 mg/kg/injection, schedule: Q01DX009 (ip), vehicle: saline with Tween-80
[3] = endpoint: mean survival time, dose: 200.0 mg/kg/injection, schedule: Q04DX003 (ip), vehicle: saline with Tween-80
[4] = endpoint: mean survival time, dose: 400.0 mg/kg/injection, schedule: Q04DX003 (ip), vehicle: saline with Tween-80
[5] = endpoint: mean survival time, dose: 100.0 mg/kg/injection, schedule: Q04DX003 (ip), vehicle: saline
[6] = endpoint: mean survival time, dose: 200.0 mg/kg/injection, schedule: Q04DX003 (ip), vehicle: saline
[7] = endpoint: mean survival time, dose: 400.0 mg/kg/injection, schedule: Q04DX003 (ip), vehicle: saline
[8] = endpoint: mean survival time, dose: 100.0 mg/kg/injection, schedule: Q04DX003 (ip), vehicle: Klucel (hydroxypropylcellulose) (HPC)
[9] = endpoint: mean survival time, dose: 200.0 mg/kg/injection, schedule: Q04DX003 (ip), vehicle: Klucel (hydroxypropylcellulose) (HPC)
[10] = endpoint: mean survival time, dose: 400.0 mg/kg/injection, schedule: Q04DX003 (ip), vehicle: Klucel (hydroxypropylcellulose) (HPC)
[11] = endpoint: mean survival time, dose: 100.0 mg/kg/injection, schedule: Q01DX001 (ip), vehicle: other
[12] = endpoint: mean survival time, dose: 200.0 mg/kg/injection, schedule: Q01DX001 (ip), vehicle: other
[13] = endpoint: mean survival time, dose: 400.0 mg/kg/injection, schedule: Q01DX001 (ip), vehicle: other

Compound: CCCCN(C)N=Nc1ccc(CCC(=O)OCC)cc1
- T/C (endpoint: mean survival time, dose: 72.5 mg/kg/injection, schedule: Q01DX009 (ip), vehicle: saline with Tween-80): 121 % of control
- T/C (endpoint: mean survival time, dose: 177.0 mg/kg/injection, schedule: Q01DX009 (ip), vehicle: other): 117 % of control
- T/C (endpoint: mean survival time, dose: 187.0 mg/kg/injection, schedule: Q01DX Z (ip), vehicle: saline): 117 % of control
- T/C (endpoint: mean survival time, dose: 207.0 mg/kg/injection, schedule: Q01DX001 (ip), vehicle: saline with Tween-80): 111 % of control
- T/C (endpoint: mean survival time, dose: 266.0 mg/kg/injection, schedule: Q01DX007 (ip), vehicle: saline): 160 % of control
- T/C (endpoint: mean survival time, dose: 290.0 mg/kg/injection, schedule: Q01DX009 (ip), vehicle: saline with Tween-80): 171 % of control
- T/C (endpoint: mean survival time, dose: 400.0 mg/kg/injection, schedule: Q01DX007 (ip), vehicle: saline): 171 % of control
- T/C (endpoint: mean survival time, dose: 400.0 mg/kg/injection, schedule: Q01DX009 (ip), vehicle: other): 162 % of control
- T/C (endpoint: mean survival time, dose: 414.5 mg/kg/injection, schedule: Q01DX001 (ip), vehicle: saline with Tween-80): 119 % of control
- T/C (endpoint: mean survival time, dose: 600.0 mg/kg/injection, schedule: Q01DX009 (ip), vehicle: other): 179 % of control
- T/C (endpoint: median survival time, dose: 200.0 mg/kg/injection, schedule: Q04DX003 (ip), vehicle: Klucel (hydroxypropylcellulose) (HPC)): 111 % of control
- T/C (endpoint: median survival time, dose: 800.0 mg/kg/injection, schedule: Q01DX009 (ip), vehicle: saline): 187 % of control

Compound: O=C(O)CCC(=O)Nc1ccccc1C(F)(F)F
- T/C [1]: 104 % of control
- T/C [2]: 93 % of control
- T/C [3]: 98 % of control
- T/C (endpoint: mean survival time, dose: 400.0 mg/kg/injection, schedule: Q01DX009 (ip), vehicle: saline with Tween-80): 86 % of control
- T/C [4]: 90 % of control

Compound: COC(=O)C1CCN1C(C)(C)C (centres undefined)
- T/C (endpoint: mean survival time, dose: 100.0 mg/kg/injection, schedule: Q01DX009 (ip), vehicle: saline): 95 % of control
- T/C [5]: 111 % of control
- T/C (endpoint: mean survival time, dose: 200.0 mg/kg/injection, schedule: Q01DX009 (ip), vehicle: saline): 95 % of control
- T/C [6]: 105 % of control
- T/C (endpoint: mean survival time, dose: 400.0 mg/kg/injection, schedule: Q01DX009 (ip), vehicle: saline): 103 % of control
- T/C [7]: 110 % of control

Compound: C=C(NC(C)=O)C(O)c1ccc([N+](=O)[O-])cc1 (centres undefined)
- T/C (endpoint: mean survival time, dose: 50.0 mg/kg/injection, schedule: Q01DX001 (ip), vehicle: carboxymethylcellulose (CMC)): 96 % of control
- T/C (endpoint: mean survival time, dose: 100.0 mg/kg/injection, schedule: Q01DX001 (ip), vehicle: carboxymethylcellulose (CMC)): 100 % of control and 90 % of control
- T/C (endpoint: mean survival time, dose: 100.0 mg/kg/injection, schedule: Q01DX009 (ip), vehicle: Klucel (hydroxypropylcellulose) (HPC)): 95 % of control
- T/C [8]: 101 % of control
- T/C (endpoint: mean survival time, dose: 200.0 mg/kg/injection, schedule: Q01DX001 (ip), vehicle: carboxymethylcellulose (CMC)): 94 % of control and 97 % of control
- T/C (endpoint: mean survival time, dose: 200.0 mg/kg/injection, schedule: Q01DX009 (ip), vehicle: Klucel (hydroxypropylcellulose) (HPC)): 93 % of control
- T/C [9]: 98 % of control
- T/C (endpoint: mean survival time, dose: 400.0 mg/kg/injection, schedule: Q01DX001 (ip), vehicle: carboxymethylcellulose (CMC)): 100 % of control and 87 % of control
- T/C (endpoint: mean survival time, dose: 400.0 mg/kg/injection, schedule: Q01DX009 (ip), vehicle: Klucel (hydroxypropylcellulose) (HPC)): 95 % of control
- T/C [10]: 95 % of control

Compound: C=C(C)CON=C(c1ccccc1)c1ccccc1
- T/C [5]: 92 % of control
- T/C [6]: 96 % of control
- T/C [7]: 97 % of control

Compound: O=C(N/N=C\c1ccc(O)cc1O)c1ccco1
- T/C [11]: 90 % of control
- T/C [12]: 93 % of control
- T/C [13]: 96 % of control

Compound: CC(NC(=O)OCc1ccccc1)C(=O)NCCC(N)=O (centres undefined)
- T/C (endpoint: mean survival time, dose: 100.0 mg/kg/injection, schedule: Q01DX009 (ip), vehicle: saline with Tween-80): 91 % of control
- T/C [2]: 88 % of control

Compound: BrC(Br)(Br)c1ccc2ccccc2n1
- T/C (endpoint: mean survival time, dose: 50.0 mg/kg/injection, schedule: Q01DX001 (ip), vehicle: other): 109 % of control
- T/C [11]: 103 % of control
- T/C [1]: 93 % of control
- T/C [12]: 101 % of control
- T/C [3]: 93 % of control
- T/C [13]: 97 % of control
- T/C [4]: 95 % of control

Compound: COc1ccc(CC2=NNC(Cc3ccc(OC)c(OC)c3)=NN2)cc1OC
- T/C [1]: 91 % of control
- T/C [3]: 91 % of control
- T/C [4]: 93 % of control

Compound: COc1cc(CC2(C#N)c3ccccc3C=CN2C(=O)c2ccccc2)c(Oc2cc(CC3(C#N)c4ccccc4C=CN3C(=O)c3ccccc3)ccc2OC)cc1OC (centres undefined)
- T/C [8]: 98 % of control
- T/C [9]: 93 % of control
- T/C [10]: 92 % of control
